Starred links: 1 amine or outer side, 2 acyl side, 3 side chain; linkers in the order of their positions; H or OH if unused. Positions of bridges follow the written chain, without caps; N, C: chain ends. Residues, ends and D or L forms follow the SMILES beside them. Chains are numbered I, II in the order given. X1 = O=C(c1ccc(Oc2nc(NCCN[*:2])nc(NCCN[*:3])n2)cc1)[*:1]
Tests used:
[1] = tested on: E. coli susceptible strains; assay: Checkerboard assay; assay type: cell-based
Procedure: (§1) A checkerboard assay was used to determine the fractional inhibitory concentrations (FICs) of dendrimers in combination with conventional antibiotics. Briefly, each well in a 96-well plate was inoculated with 100 µL of a bacterial inoculum of 1 × 10^6 CFU/mL, and the plates were incubated at 37 °C for 24 h. The FIC was calculated after identifying the first well in each row without growth (MIC), according to the following formula: FIC of drug A (FIC A) = (MIC of drug A in combination)/(MIC of A); FIC of drug B (FIC B) = (MIC of drug B in combination)/(MIC of B). The FIC index (FICI) values were calculated by adding the FIC of drug A to the FIC of drug B [46]. The interpretation of the (FICI) was the following: FICI ≤ 0.5, synergy; 0.5 < FICI ≤ 1, additivity; 1 < FICI ≤ 2 […].

[2] = tested on: P. aeruginosa susceptible and resistant strains; assay: Checkerboard assay; assay type: cell-based; details: both susceptible and resistant strains
Procedure: as §1

MDR E. coli [3] = assay: Checkerboard assay; assay type: cell-based; details: for interaction with ciprofloxacin: MDR E. coli; for interaction with rifampicin: strain not stated at this place, b42: results for rifampin quite similar to ciprofloxacin
Procedure: as §1

E. coli ATCC 25922 = assay type: cell-based; details: for effect on growth curve (in words): E. coli ATCC 25922, TSB, MIC, ½ MIC and ¼ MIC, 37 °C, OD 850 nm
Procedure: The real-time effect of the peptide dendrimers was examined on the growth curves of E. coli ATCC 25922 and P. aeruginosa ATCC 27853. Volumes of 10 mL of TSB liquid cultures containing 1–5 × 10^5 CFU/mL in the logarithmic phase were adjusted in Falcon tubes. Peptide dendrimers were then added at MIC and sub-inhibitory concentrations (½ MIC and ¼ MIC). Incubation was performed in RTS-1C real-time reverse spin bioreactors RTS-1 (Biosan) for 24 h at 37 °C and 2000 rpm. Growth was measured noninvasively as optical density (OD 850 nm) every 15 min.

MDR P. aeruginosa = assay type: cell-based; details: 24 h
Procedure: (§2) E. coli ATCC 25922, P. aeruginosa ATCC 27853, S. aureus ATCC 29213, P. aeruginosa 666 SJD (ciprofloxacin-resistant), P. aeruginosa P12, P13, P15, P16 and P17 (MDR isolates) and E. coli 7987, 5545, 8248, 13974, 7259 and 208691 (MDR isolates) from our own collection were included in the present study.
(§3) The antimicrobial activity of the dendrimers was evaluated against E. coli ATCC 25922, P. aeruginosa ATCC 27853 and S. aureus ATCC 29213 strains. The MIC values were determined by the broth microdilution method. Briefly, the different strains were grown in Muller Hinton broth cation adjusted (MHBCA) medium overnight at 37 °C with shaking at 200 rpm. The bacterial cultures were then adjusted to OD625nm of 0.08–0.1, and 5 μL of each diluted suspension was added to 96-well plates previously filled with MHBCA and serially diluted peptides. Plates were incubated for 24 h at 37 °C. Finally, the MIC was determined macroscopically, based on the visual turbidity of the wells.

MDR E. coli [4] = assay type: cell-based; details: 24 h
Procedure: as §2, §3

P. aeruginosa ATCC 27853 [5] = assay: Time-kill curves; assay type: cell-based; details: P. aeruginosa ATCC 27853, ½ MIC
Procedure: The death kinetics of the active dendrimers were examined by plotting their time-kill curves against E. coli ATCC 25922 and P. aeruginosa ATCC 27853. The dendrimers were added to a starting bacterial inoculum of 10^6 CFU/mL in 5 mL of MHBCA medium. Dendrimers were tested at three different concentrations: MIC, ½ MIC and ¼ MIC. They were incubated for 24 h at 37 °C with shaking at 200 rpm. Samples were aseptically collected at 0, 1, 2, 4 and 6 h, serially diluted in Ringer ¼ and plated on Tryptone soy agar for colony counting.
The response of the microbial strains to the dendrimers was determined based on a logarithmic decrease in viable bacteria. A compound was considered active if it caused a reduction of ≥1 log10 CFU/mL, compared to the corresponding counts at time 0 h. In addition, a dendrimer was considered bactericidal if it caused a reduction of ≥3 log10 CFU/mL [40].

[6] = Black lipid bilayers conductance; details: DiPhPC/PS 4:1 in n-decane, 1 M KCl, −80, −120 and −180 mV
Procedure: The basic methods have been described previously. Membranes were prepared from 1% lipid a mixture of di-phytanoyl-phosphatidylcholine/di-phytanoylphosphatidylserine (DiPhPC/PS) in a molar ratio of 4:1 in n-decane (Avanti Polar Lipids, Delfzyl, The Netherlands). Bilayers were painted over a 2 mm^2 hole in a Teflon divider separating two compartments containing 5 mL each of a bathing solution of 1MKCl. Voltages were applied across the membrane via calomel electrodes connected by a salt bridge. The resultant current was amplified 10^8-fold by a current amplifier and recorded on a Rikadenski chart recorder. A concentration of 1 μg/mL of the dendrimer was used based on the results of Wu et al..

P. aeruginosa ATCC 27853 [7] = assay: Intracellular accumulation of acridine orange; assay type: cell-based; details: P. aeruginosa ATCC 27853, dendrimers at MIC
Procedure: (§4) The assay was performed as previously described by Armengol et al. including control and clinical strains (E. coli 208691 and P. aeruginosa 666 SJD) previously studied by our group. Briefly, 96-well flat-bottomed microtiter plates (Guangzhou Jet Bio-Filtration Co., Ltd., Mianyang, China) were used. Overnight cultures were diluted in 1/4 Ringer’s solution to an OD520nm of 1.5, and 100 µL was added to the wells previously filled with 100 µL of Ringer’s solution. Acridine Orange (AO) was added to a final concentration of 0.25 µg/mL. The inoculated plates were then incubated for 30 min with shaking, after which the fluorescence was measured in a FLUOstar OPTIMA fluorescence microplate reader (BMG Labtech, Ortenberg, Germany).
(§5) To determine the uptake and accumulation of AO by bacteria, different scenarios were compared. First, bacteria were examined in the presence of PAβN at 20 µg/mL, and then in the presence of different concentrations of the dendrimers at (MIC, ½ MIC, ¼ MIC). The results in each condition were expressed as the percentage increase in fluorescence with respect to the control.

E. coli 208691 = assay: Intracellular accumulation of acridine orange; assay type: cell-based; details: E. coli 208691, dendrimers at MIC, ½ MIC, ¼ MIC, AO 0.25 µg/mL, 30 min
Procedure: as §4, §5

CC(C)C[C@H](NC(=O)[C@H](CCCCN)NC(=O)[C@H](CC(C)C)NC(=O)[C@H](CCCCN)NC(=O)[C@H](CC(C)C)Nc1nc(NCCNC(=O)[C@H](CCCCN)NC(=O)[C@H](CC(C)C)NC(=O)[C@H](CCCCN)NC(=O)[C@H](CC(C)C)NC(=O)[C@H](CCCCN)NC(=O)[C@@H](N)CC(C)C)nc(NCCNC(=O)[C@H](CCCCN)NC(=O)[C@H](CC(C)C)NC(=O)[C@H](CCCCN)NC(=O)[C@H](CC(C)C)NC(=O)[C@H](CCCCN)NC(=O)[C@@H](N)CC(C)C)n1)C(=O)N[C@@H](CCCCN)C(N)=O [Dendrimer 2, H-[(LK)3-EDA]2-TA-(LK)3-NH2]
interaction with ciprofloxacin [1]: additive effect
interaction with ciprofloxacin [2]: additive effect
interaction with ciprofloxacin (MDR E. coli [3]): synergistic
interaction with rifampicin (MDR E. coli [3]): synergic
effect on growth curve (in words) (E. coli ATCC 25922; 24 h): full growth inhibition only at the MIC
MIC values in MDR P. aeruginosa (span over isolates) (MDR P. aeruginosa): 16 to 32 µg/mL
MIC values in MDR E. coli (span over isolates) (MDR E. coli [4]): 2 to 8 µg/mL
time-kill activity at ½ MIC (in words) (P. aeruginosa ATCC 27853 [5]): higher antimicrobial activity than dendrimer 1
channel formation in planar lipid bilayers (conductance) [6]: did not induce membrane channels

CC(C)C[C@H](NC(=O)c1ccc(Oc2nc(NCCNC(=O)[C@H](CCCCN)NC(=O)[C@H](CC(C)C)NC(=O)[C@H](CCCCN)NC(=O)[C@H](CC(C)C)NC(=O)[C@H](CCCCN)NC(=O)[C@@H](N)CC(C)C)nc(NCCNC(=O)[C@H](CCCCN)NC(=O)[C@H](CC(C)C)NC(=O)[C@H](CCCCN)NC(=O)[C@H](CC(C)C)NC(=O)[C@H](CCCCN)NC(=O)[C@@H](N)CC(C)C)n2)cc1)C(=O)N[C@@H](CCCCN)C(=O)N[C@@H](CC(C)C)C(=O)N[C@@H](CCCCN)C(=O)N[C@@H](CC(C)C)C(=O)N[C@@H](CCCCN)C(N)=O [Dendrimer 1, H-[(LK)3]2-(EDA)2-TA-PHBA-(LK)3-NH2] (I: LKLKLK-NH2 / II: H-LKLKLK / III: H-LKLKLK; linker I:N-II:C-III:C via X1)
interaction with ciprofloxacin [1]: additive effect
interaction with ciprofloxacin [2]: additive effect
interaction with ciprofloxacin (MDR E. coli [3]): synergistic
interaction with rifampicin (MDR E. coli [3]): synergic
MIC value deduced from microfermentor experiments (E. coli ATCC 25922; ATCC 25922, 24 h): < 2 µg/mL
effect on growth curve (in words) (E. coli ATCC 25922; 24 h): fully inhibited growth at the three concentrations tested
concentration that completely inhibited detectable growth (E. coli ATCC 25922; E. coli ATCC 25922, growth curves, 24 h): 2 µg/mL
channel formation in planar lipid bilayers (conductance) [6]: did not induce membrane channels
AO accumulation (in words) (P. aeruginosa ATCC 27853 [7]): slight increase in AO accumulation
AO accumulation (in words) (E. coli 208691): marked increase in AO accumulation

Source: PMC11172478, “1,3,5-Triazine as Branching Connector for the Construction of Novel Antimicrobial Peptide Dendrimers: Synthesis and Biological Characterization” (International Journal of Molecular Sciences, 2024)
